Measured values as given in patent publication US8241607B2, “Use of fructose-based compounds for the diagnosis of cancer” (priority 2005, dated 2012).

Columns and labels:
AP-1 = AP-1 probe binding assay on nuclear extracts of a primary culture of a pancreatic tumor; type: cell-based, human; details: 5.5 mM sugar, 48 h
Method: FIG. 24 depicts luciferase activity of PANC-1 cells and primary culture of surgically resected pancreatic tumor cells in accordance with an embodiment of the present invention. PANC-1 pancreatic cancer cells and a primary culture of a surgically resected pancreatic tumor were incubated in 2 mM glucose, 5.5 mM glucose or 5.5 mM fructose for 48 h, after which nuclear extracts were incubated with a biotinylated AP-1 probe, and detected by an antibody-linked colorimetric method. *, p<0.01
In separate experiments PANC-1 cells, and primary cultures of surgically resected pancreatic tumors were incubated in 2 mM glucose, or 5.5 mM glucose or 5.5 mM fructose for 48 h, after which nuclear extracts were incubated with a biotinylated AP-1 probe in binding buffer. AP-1/AP1 probe complexes were next conjugated to a streptavidin-coated assay plate and detected using an AP-1 specific antibody, followed by binding of a horseradish-peroxidase conjugated secondary antibody, and detection by a colorimetric reagent.

PANC-1 cells = experiment: [1,2-13C2] stable isotope-based dynamic metabolic profiling in PANC-1 cells; type: cell-based; details: 72 h
Method: FIG. 28 depicts the metabolism of fructose and glucose in pancreatic cancer cells in accordance with an embodiment of the present invention. Lactate generation from glycolysis (a), and hexose oxidation in the pentose and tricarboxylic acid cycles (b) following treatment of PANC-1 cells with 2 mM glucose, 5.5 mM glucose, and 5.5 mM fructose for 72 h. […] In (b), the ^13C to ^12C ratio in the CO2 released from the PANC-1 cells is presented.
FIG. 29 depicts fatty acid synthesis from glucose versus fructose in accordance with an embodiment of the present invention. Fatty acid synthesis represented by (a), ^13C-labelled oleate, (b) ^13C-labelled arachidic acid, and (c) ^13C-labelled 24-carbon fatty acid fraction following treatment of PANC-1 cells with 2 mM, and 5.5 mM glucose, and 5.5 mM fructose for 72 h. For the fatty acids, the fraction of ^13C-labeled oleate, arachidic acid or 24-carbon fatty acid is expressed as percentage of total oleate, arachidic acid or 24-carbon fatty acids, respectively.
FIG. 30 depicts ribose and deoxyribose synthesis following glucose and fructose treatment in accordance with an embodiment of the present invention.
Metabolism comprises anabolic (converting small molecules into big ones) and catabolic processes (converting food into useful energy), predicts the functional state of a cell, and analyzes the levels of the end products (metabolites) of anabolism and catabolism. Metabolic profiling using stable isotope tracer technology ([1,2-^13C] sugars) allows the measurement of the changing pattern of distribution of ^13C carbons from [1,2-^13C] glucose in intracellular metabolic intermediates, and provides a simultaneous measure of carbon flow toward the pentose cycle, glycolysis, direct glucose oxidation, tricarboxylic acid (TCA) cycle and fatty acid synthesis (76,77). […] The inventors employed [1,2-^13C2] glucose, or [1,2-^13C2] fructose stable isotope-based dynamic metabolic profiling (SiDMAP, Los Angeles, US) to track and quantify changes in glucose, and fructose carbon re-distribution among major metabolic pathways in pancreatic cancer cells (Lee W N, Boros L G, Puigjaner J, Bassilian S, Lim S, Cascante M. Mass istopomer study of transketolase-transaldolase pathways of the pentose cycle with [1,2-^13C2]glucose. Am J Physiol 274:E843-51, 1998; Lee W N, Byerley L O, Bassilian S, Ajie H O, Clark I, Edmond J. Isotopomer study of lipogenesis in human hepatoma cells in culture: contribution of carbon and hydrogen atoms from glucose. Anal Biochem 226: 100-112). The principles of this methodology are outlined below in a series of schematics (FIGS. 25-27) illustrating how this technique tracked carbohydrate metabolism and the data generated. […]

normal pancreas tissue = experiment: Substrate oxidation with 13C tracers in primary culture of normal pancreas; type: cell-based, human; details: 5.5 mM, 72 h
Method: FIG. 31 depicts substrate oxidation in accordance with an embodiment of the present invention. Substrate oxidation in a primary culture of a normal pancreas (left), and a pancreatic cancer (right) following incubation in 2 mM, or 5 mM glucose, or 5 mM fructose for 72 h.
In separate studies, the inventors treated primary cultures of 4 pancreatic adenocarcinomas, and 3 normal pancreas tissues with the [1,2-^13C2]D-glucose-, or -fructose-tracers as before for 72 h, and carried out metabolic studies.

O=C(CO)[C@@H](O)[C@H](O)[C@H](O)CO [fructose]
increase in AP-1 activation compared to 2 mM glucose (AP-1): 2.1 fold | route of metabolism in the pentose phosphate shunt (PANC-1 cells; 5.5 mM 13C-labeled sugar): preferentially metabolized by TKK | fraction metabolized for fatty acid synthesis (FAS) (PANC-1 cells; 13C-labeled fructose vs glucose): comparatively less | CO2 production, fructose in comparison to glucose (PANC-1 cells; 13C-labeled sugar): 34 fold lower | lactate production, fructose in comparison to glucose (PANC-1 cells; 13C-labeled sugar): 34 fold lower | substrate oxidation to CO2 (normal pancreas tissue): effectively oxidizes
